Laboratory results: US20190071416A1, “COMPOUNDS FOR TREATMENT OF CANCER AND EPIGENETICS” (Agency For Science, Technology and Research, priority 2015, published 2019)
pIC50: −log10 of the molar value.

target: T1, SMYD3 (Homo sapiens, UniProt Q9H7B4); test: SMYD3 biochemical assay (MTase-Glo, MAP3K2 peptide substrate); settings: Table 3; MTase assay, MAP3K2 peptide substrate; read-out: IC50
T1 sequence (Q9H7B4 1-428): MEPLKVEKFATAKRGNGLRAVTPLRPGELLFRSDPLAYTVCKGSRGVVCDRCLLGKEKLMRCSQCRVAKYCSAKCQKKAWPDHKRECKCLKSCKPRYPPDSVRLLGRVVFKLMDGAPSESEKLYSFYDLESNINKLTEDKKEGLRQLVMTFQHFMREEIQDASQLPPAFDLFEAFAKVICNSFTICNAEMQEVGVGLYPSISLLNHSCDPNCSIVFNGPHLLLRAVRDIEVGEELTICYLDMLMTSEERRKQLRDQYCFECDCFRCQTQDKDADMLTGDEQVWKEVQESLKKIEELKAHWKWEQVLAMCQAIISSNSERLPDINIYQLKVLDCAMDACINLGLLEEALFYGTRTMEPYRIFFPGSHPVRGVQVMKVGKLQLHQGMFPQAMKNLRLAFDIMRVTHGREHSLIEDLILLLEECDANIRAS
Method: A SMYD3 enzymatic assay was developed using Promega's Methyltransferase-Glo™ reagents. In the assay, SMYD3 catalyzes the methylation of the MAP3K2 peptide substrate by transferring a methyl group from SAM to MAP3K2 peptide and further converts the SAM to SAH. The SMYD3 methyltransferase activity is measured based on the amount of SAH produced from the reaction through the use of coupling enzymes that convert the SAH to ATP. The MTase-Glo detection solution then catalyzes the formation of light from ATP.
A final concentration of 1.0 μM and 10 μM SAM and MAP3K2 peptide were added and further incubated for 30 min at room temperature before adding the MTase Glo and detection reagent. Reaction signals were detected using microplate readers on luminescent mode (Safire Tecan). The IC50 was determined by non-linear regression, using GraphPad Prism version, 5.03.

In order of rising pIC50:
1. CCCOC(=O)N1CCN(C(=O)c2ccc3c(Cl)c4c(nc3c2)CCCC4)CC1CC(=O)OC (stereo not drawn) [A069, Propyl 4-(9-chloro-5,6,7,8-tetrahydroacridine-3-carbonyl)-2-(2-methoxy-2-oxoethyl)piperazine-1-carboxylate]  5.28
2. CCCOC(=O)N1CCN(C(=O)c2ccc3c(Cl)c4c(nc3c2)CCCC4)C(CC(=O)NC)C1 (stereo not drawn) [A072, propyl 4-(9-chloro-5,6,7,8-tetrahydroacridine-3-carbonyl)-3-(2-(methylamino)-2-oxoethyl)piperazine-1-carboxylate]  5.37
3. CCCOC(=O)N1CCN(C(=O)c2ccc3c(Cl)c4c(nc3c2)CCCC4)C(CC(=O)N(C)C)C1 (stereo not drawn) [A071, Propyl 4-(9-chloro-5,6,7,8-tetrahydroacridine-3-carbonyl)-3-(2-(dimethylamino)-2-oxoethyl)piperazine-1-carboxylate]  5.38
4. CCCOC(=O)N1CCN(C(=O)c2ccc3c(Cl)c4c(nc3c2)CCCC4)C(CC(=O)OC)C1 (stereo not drawn) [A070, Propyl 4-(9-chloro-5,6,7,8-tetrahydroacridine-3-carbonyl)-3-(2-methoxy-2-oxoethyl)piperazine-1-carboxylate]  5.59
5. CCCOC(=O)N1CCN(C(=O)c2ccc3c(Cl)c4c(nc3c2)CCC(CN(C)C)C4)CC1 (stereo not drawn) [A068, Propyl 4-(9-chloro-7-((dimethylamino)methyl)-5,6,7,8-tetrahydroacridine-3-carbonyl)piperazine-1-carboxylate]  5.92
6. CCCOC(=O)N1CCN(C(=O)c2ccc3c(Cl)c4c(nc3c2)CC(CC(N)=O)CC4)CC1 (stereo not drawn) [A077, Propyl 4-(6-(2-amino-2-oxoethyl)-9-chloro-5,6,7,8-tetrahydroacridine-3-carbonyl)piperazine-1-carboxylate]  5.92
7. CCCOC(=O)N1CCN(C(=O)c2ccc3c(Cl)c4c(nc3c2)CC(c2ncccc2C)CC4)CC1 (stereo not drawn) [A096, Propyl 4-(9-chloro-6-(3-methylpyridin-2-yl)-5,6,7,8-tetrahydroacridine-3-carbonyl)piperazine-1-carboxylate]  5.92
8. CCCOC(=O)N1CCN(C(=O)c2ccc3c(Cl)c4c(nc3c2)CCC(CCN(C)C)C4)[C@@H](C)C1 (stereo partly drawn) [A082, Propyl (3S)-4-(9-chloro-7-(2-(dimethylamino)ethyl)-5,6,7,8-tetrahydroacridine-3-carbonyl)-3-methylpiperazine-1-carboxylate]  6.29
9. Cc1cc(C(=O)N2CCN(C(=O)c3ccc4c(Cl)c5c(nc4c3)CCCC5)[C@@H](C)C2)no1 [A083, (S)-(9-Chloro-5,6,7,8-tetrahydroacridin-3-yl)(2-methyl-4-(5-methylisoxazole-3-carbonyl)piperazin-1-yl)methanone]  6.36
10. CCCOC(=O)N1CCN(C(=O)c2ccc3c(Cl)c4c(nc3c2)CCC(CC(N)=O)C4)CC1 (stereo not drawn) [A079, Propyl 4-(7-(2-amino-2-oxoethyl)-9-chloro-5,6,7,8-tetrahydroacridine-3-carbonyl)piperazine-1-carboxylate]  6.37
11. CCCOC(=O)N1CCN(C(=O)c2ccc3c(Cl)c4c(nc3c2)CCC(Cc2noc(C)n2)C4)CC1 (stereo not drawn) [A089, Propyl 4-(9-chloro-7-((5-methyl-1,2,4-oxadiazol-3-yl)methyl)-5,6,7,8-tetrahydroacridine-3-carbonyl)piperazine-1-carboxylate]  6.46
12. CCCOC(=O)N1CCN(C(=O)c2ccc3c(Cl)c4c(nc3c2)CC(CNC(=N)N)CC4)[C@@H](C)C1 (stereo partly drawn) [A090, Propyl (3S)-4-(9-chloro-6-(guanidinomethyl)-5,6,7,8-tetrahydroacridine-3-carbonyl)-3-methylpiperazine-1-carboxylate]  6.46
13. CCCOC(=O)N1CCN(C(=O)c2ccc3c(Cl)c4c(nc3c2)CCC(CC#N)C4)CC1 (stereo not drawn) [A078, Propyl 4-(9-chloro-7-(cyanomethyl)-5,6,7,8-tetrahydroacridine-3-carbonyl)piperazine-1-carboxylate]  6.55
14. CCCOC(=O)N1CCN(C(=O)c2ccc3c(Cl)c4c(nc3c2)CCC(CCN(C)C)C4)CC1 (stereo not drawn) [A075, Propyl 4-(9-chloro-7-(2-(dimethylamino)ethyl)-5,6,7,8-tetrahydroacridine-3-carbonyl)piperazine-1-carboxylate]  6.68
15. CCCOC(=O)N1CC2CCCC1CN2C(=O)c1ccc2c(Cl)c3c(nc2c1)CCCC3 (stereo not drawn) [A080, Propyl 8-(9-chloro-5,6,7,8-tetrahydroacridine-3-carbonyl)-6,8-diazabicyclo[3.2.2]nonane-6-carboxylate]  6.77
16. CCCOC(=O)N1CCN(C(=O)c2ccc3c(Cl)c4c(nc3c2)CC(c2ccc(F)cn2)CC4)C[C@@H]1C (stereo partly drawn) [A097, Propyl (2S)-4-(9-chloro-6-(5-fluoropyridin-2-yl)-5,6,7,8-tetrahydroacridine-3-carbonyl)-2-methylpiperazine-1-carboxylate]  6.77
17. CCCOC(=O)N1CCN(C(=O)c2ccc3c(Cl)c4c(nc3c2)CC(CN)CC4)[C@@H](C)C1 (stereo partly drawn) [A067, Propyl (3S)-4-(6-(aminomethyl)-9-chloro-5,6,7,8-tetrahydroacridine-3-carbonyl)-3-methylpiperazine-1-carboxylate]  6.80
18. CCCOC(=O)N1CCN(C(=O)c2ccc3c(Cl)c4c(nc3c2)CC(CCN)CC4)CC1 (stereo not drawn) [A076, Propyl 4-(6-(2-aminoethyl)-9-chloro-5,6,7,8-tetrahydroacridine-3-carbonyl)piperazine-1-carboxylate]  6.80
19. CCCOC(=O)N1CCN(C(=O)c2ccc3c(Cl)c4c(nc3c2)CCC(CC(=O)OC)C4)[C@H](C)C1 (stereo partly drawn) [A085, Propyl (3R)-4-(9-chloro-7-(2-methoxy-2-oxoethyl)-5,6,7,8-tetrahydroacridine-3-carbonyl)-3-methylpiperazine-1-carboxylate]  6.80
20. CCCOC(=O)N1CCN(C(=O)c2ccc3c(Cl)c4c(nc3c2)CC(c2ccccn2)CC4)C[C@@H]1C (stereo partly drawn) [A073, Propyl (2S)-4-(9-chloro-6-(pyridin-2-yl)-5,6,7,8-tetrahydroacridine-3-carbonyl)-2-methylpiperazine-1-carboxylate]  6.82
21. CCCOC(=O)N1CCN(C(=O)c2ccc3c(Cl)c4c(nc3c2)CCC(CCN)C4)[C@@H](C)C1 (stereo partly drawn) [A081, Propyl (3S)-4-(7-(2-aminoethyl)-9-chloro-5,6,7,8-tetrahydroacridine-3-carbonyl)-3-methylpiperazine-1-carboxylate]  6.82
22. CCCOC(=O)N1CCN(C(=O)c2ccc3c(Cl)c4c(nc3c2)CC(c2ccc(F)cn2)CC4)C[C@H]1C (stereo partly drawn) [A098, Propyl (2R)-4-(9-chloro-6-(5-fluoropyridin-2-yl)-5,6,7,8-tetrahydroacridine-3-carbonyl)-2-methylpiperazine-1-carboxylate]  6.82
23. CCCOC(=O)N1CCN(C(=O)c2ccc3c(Cl)c4c(nc3c2)CC(CCNC(=N)N)CC4)[C@@H](C)C1 (stereo partly drawn) [A091, Propyl (3S)-4-(9-chloro-6-(2-guanidinoethyl)-5,6,7,8-tetrahydroacridine-3-carbonyl)-3-methylpiperazine-1-carboxylate]  6.85
24. CCCOC(=O)N1CCN(C(=O)c2ccc3c(Cl)c4c(nc3c2)CC(c2ccc(F)cn2)CC4)CC1 (stereo not drawn) [A094, Propyl 4-(9-chloro-6-(5-fluoropyridin-2-yl)-5,6,7,8-tetrahydroacridine-3-carbonyl)piperazine-1-carboxylate]  6.85
25. CCCOC(=O)N1CCN(C(=O)c2ccc3c(Cl)c4c(nc3c2)CCC(CC(=O)OC)C4)[C@@H](C)C1 (stereo partly drawn) [A084, Propyl (3S)-4-(9-chloro-7-(2-methoxy-2-oxoethyl)-5,6,7,8-tetrahydroacridine-3-carbonyl)-3-methylpiperazine-1-carboxylate]  6.92
26. CCCOC(=O)N1CCN(C(=O)c2ccc3c(Cl)c4c(nc3c2)CC(c2ccncc2)CC4)[C@@H](C)C1 (stereo partly drawn) [A092, Propyl (3S)-4-(9-chloro-6-(pyridin-4-yl)-5,6,7,8-tetrahydroacridine-3-carbonyl)-3-methylpiperazine-1-carboxylate]  6.96
27. CCCOC(=O)N1CCN(C(=O)c2ccc3c(Cl)c4c(nc3c2)CC(c2ccc(F)cn2)CC4)[C@@H](C)C1 (stereo partly drawn) [A095, Propyl (3S)-4-(9-chloro-6-(5-fluoropyridin-2-yl)-5,6,7,8-tetrahydroacridine-3-carbonyl)-3-methylpiperazine-1-carboxylate]  6.96
28. CCCOC(=O)N1CCN(C(=O)c2ccc3c(Cl)c4c(nc3c2)CC(c2ccncc2)CC4)[C@H](C)C1 (stereo partly drawn) [A093, Propyl (3R)-4-(9-chloro-6-(pyridin-4-yl)-5,6,7,8-tetrahydroacridine-3-carbonyl)-3-methylpiperazine-1-carboxylate]  7.00
29. CCCOC(=O)N1CCN(C(=O)c2ccc3c(Cl)c4c(nc3c2)CC(c2ccccn2)CC4)[C@@H](C)C1 (stereo partly drawn) [A086, Propyl (3S)-4-(9-chloro-6-(pyridin-2-yl)-5,6,7,8-tetrahydroacridine-3-carbonyl)-3-methylpiperazine-1-carboxylate]  7.02
30. CCCOC(=O)N1CCN(C(=O)c2ccc3c(Cl)c4c(nc3c2)CC(c2ccccn2)CC4)[C@H](C)C1 (stereo partly drawn) [A087, Propyl (3R)-4-(9-chloro-6-(pyridin-2-yl)-5,6,7,8-tetrahydroacridine-3-carbonyl)-3-methylpiperazine-1-carboxylate]  7.25
